Experimental data: the CheMixHub viscosity set

Experiment: xn = mol fraction of the nth substance listed

CC(C)c1ccccc1 + CCCO
viscosity [mPa·s], 101 kPa
Settings | 298.15 K | 303.15 K | 308.15 K | 313.15 K | 318.15 K | 323.15 K
x1 = 0.013 | 1.976 | – | 1.523 | – | – | –
x1 = 0.0796 | 1.683 | – | 1.334 | – | – | –
x1 = 0.1684 | 1.406 | – | 1.14 | – | – | –
x1 = 0.2504 | 1.236 | – | 1.011 | – | – | –
x1 = 0.3462 | 1.092 | – | 0.896 | – | – | –
x1 = 0.4697 | 0.956 | – | 0.791 | – | – | –
x1 = 0.5994 | 0.854 | – | 0.712 | – | – | –
x1 = 0.7565 | 0.756 | – | 0.657 | – | – | –
x2 = 0.0996 | – | 0.6838 | 0.6412 | 0.602 | 0.5678 | 0.5436
x2 = 0.1997 | – | 0.6995 | 0.6529 | 0.612 | 0.5746 | 0.54
x2 = 0.2988 | – | 0.7297 | 0.6794 | 0.6333 | 0.592 | 0.5542
x2 = 0.4008 | – | 0.7751 | 0.7176 | 0.6661 | 0.6202 | 0.5777
x2 = 0.5012 | – | 0.8411 | 0.7731 | 0.7142 | 0.6612 | 0.6129
x2 = 0.6002 | – | 0.9284 | 0.847 | 0.7762 | 0.7145 | 0.6596
x2 = 0.7002 | – | 1.046 | 0.9475 | 0.8652 | 0.7897 | 0.7201
x2 = 0.8 | – | 1.205 | 1.086 | 0.982 | 0.8912 | 0.81
x2 = 0.8991 | – | 1.426 | 1.275 | 1.146 | 1.033 | 0.9322

CCCCOC(C)=O + CCCO
viscosity [mPa·s], 101 kPa
Settings | 298.15 K | 303.15 K | 308.15 K | 313.15 K
x1 = 0.0995 | 1.689 | 1.479 | 1.311 | 1.19
x1 = 0.1003 | – | 1.296 | – | –
x1 = 0.198 | – | 1.062 | – | –
x1 = 0.1987 | 1.483 | 1.293 | 1.148 | 1.048
x1 = 0.2976 | 1.308 | 1.148 | 1.025 | 0.942
x1 = 0.3002 | – | 0.912 | – | –
x1 = 0.4004 | – | 0.821 | – | –
x1 = 0.4009 | 1.151 | 1.011 | 0.915 | 0.848
x1 = 0.4989 | 1.023 | 0.903 | 0.822 | 0.77
x1 = 0.5001 | – | 0.755 | – | –
x1 = 0.5969 | 0.921 | 0.836 | 0.76 | 0.713
x1 = 0.6002 | – | 0.705 | – | –
x1 = 0.6993 | 0.833 | 0.766 | 0.7 | 0.67
x1 = 0.7001 | – | 0.674 | – | –
x1 = 0.7999 | – | 0.654 | – | –
x1 = 0.8008 | 0.767 | 0.717 | 0.666 | 0.631
x1 = 0.8932 | 0.717 | 0.68 | 0.636 | 0.61
x1 = 0.9002 | – | 0.641 | – | –

CCCN + CCCO
Settings | viscosity [mPa·s]
298.15 K, 100 kPa, x2 = 0.0523 | 0.3938
298.15 K, 100 kPa, x2 = 0.1008 | 0.4276
298.15 K, 100 kPa, x2 = 0.2001 | 0.5072
298.15 K, 100 kPa, x2 = 0.2985 | 0.6113
298.15 K, 100 kPa, x2 = 0.3979 | 0.7332
298.15 K, 100 kPa, x2 = 0.5037 | 0.864
298.15 K, 100 kPa, x2 = 0.5989 | 1.002
298.15 K, 100 kPa, x2 = 0.7015 | 1.186
298.15 K, 100 kPa, x2 = 0.7962 | 1.378
298.15 K, 100 kPa, x2 = 0.9032 | 1.671
298.15 K, 100 kPa, x2 = 0.9626 | 1.843
303.15 K, 101.33 kPa, x1 = 0.0903 | 1.559
303.15 K, 101.33 kPa, x1 = 0.1862 | 1.343
303.15 K, 101.33 kPa, x1 = 0.2822 | 1.157
303.15 K, 101.33 kPa, x1 = 0.3807 | 0.9888
303.15 K, 101.33 kPa, x1 = 0.4868 | 0.8381
303.15 K, 101.33 kPa, x1 = 0.5804 | 0.7151
303.15 K, 101.33 kPa, x1 = 0.6878 | 0.596
303.15 K, 101.33 kPa, x1 = 0.7825 | 0.5123
303.15 K, 101.33 kPa, x1 = 0.901 | 0.417
313.15 K, 101.33 kPa, x1 = 0.0903 | 1.255
313.15 K, 101.33 kPa, x1 = 0.1862 | 1.096
313.15 K, 101.33 kPa, x1 = 0.2822 | 0.9516
313.15 K, 101.33 kPa, x1 = 0.3807 | 0.8187
313.15 K, 101.33 kPa, x1 = 0.4868 | 0.6961
313.15 K, 101.33 kPa, x1 = 0.5804 | 0.6034
313.15 K, 101.33 kPa, x1 = 0.6878 | 0.5101
313.15 K, 101.33 kPa, x1 = 0.7825 | 0.4401
313.15 K, 101.33 kPa, x1 = 0.901 | 0.3655

CCCN + CCN(CC)CC
303.15 K, 101.33 kPa
Settings | viscosity [mPa·s]
x2 = 0.1027 | 0.3371
x2 = 0.2061 | 0.3317
x2 = 0.3991 | 0.3268
x2 = 0.495 | 0.3278
x2 = 0.6009 | 0.331
x2 = 0.7911 | 0.3408
x2 = 0.8925 | 0.3499

Oc1ccccc1Cl + CCN(CC)CC
298 K, 101.33 kPa
Settings | viscosity [mPa·s]
x1 = 0.074 | 0.447
x1 = 0.305 | 1.41
x1 = 0.408 | 3.58
x1 = 0.473 | 7.81
x1 = 0.552 | 26.2
x1 = 0.616 | 109
x1 = 0.65 | 255
x1 = 0.703 | 529
x1 = 0.72 | 594
x1 = 0.751 | 451
x1 = 0.769 | 343
x1 = 0.797 | 213
x1 = 0.843 | 68.9
x1 = 0.87 | 34.3
x1 = 0.901 | 18.3
x1 = 0.956 | 5.91

Oc1ccccc1Cl + CCN(CC)c1ccccc1
viscosity [mPa·s], 101 kPa
Settings | x1 = 0.1 | x1 = 0.2015 | x1 = 0.3033 | x1 = 0.4011 | x1 = 0.497 | x1 = 0.6026 | x1 = 0.7 | x1 = 0.7988 | x1 = 0.9003
298 K | 2.116 | 2.366 | 2.722 | 3.122 | 3.629 | 4.195 | 4.548 | 4.623 | 4.12
303 K | 1.858 | 2.053 | 2.31 | 2.589 | 2.933 | 3.337 | 3.533 | 3.605 | 3.32
308 K | 1.668 | 1.818 | 2.013 | 2.192 | 2.432 | 2.741 | 2.89 | 2.938 | 2.769
313 K | 1.507 | 1.626 | 1.775 | 1.94 | 2.12 | 2.318 | 2.42 | 2.463 | 2.361
318 K | 1.37 | 1.47 | 1.641 | 1.701 | 1.841 | 1.998 | 2.086 | 2.129 | 2.135

Oc1ccccc1Cl + CCNc1ccccc1
viscosity [mPa·s], 101 kPa
Settings | x1 = 0.1027 | x1 = 0.2022 | x1 = 0.3028 | x1 = 0.4011 | x1 = 0.5014 | x1 = 0.6004 | x1 = 0.7024 | x1 = 0.7991 | x1 = 0.8994
298 K | 2.403 | 2.916 | 3.666 | 4.186 | 4.763 | 5.01 | 5.008 | 4.647 | 4.064
303 K | 2.117 | 2.487 | 3.051 | 3.372 | 3.807 | 4.028 | 3.972 | 3.751 | 3.335
308 K | 1.852 | 2.161 | 2.557 | 2.828 | 3.16 | 3.314 | 3.299 | 3.134 | 2.844
313 K | 1.673 | 1.885 | 2.206 | 2.407 | 2.662 | 2.771 | 2.782 | 2.67 | 2.452
318 K | 1.491 | 1.67 | 1.925 | 2.166 | 2.287 | 2.372 | 2.392 | 2.317 | 2.137
